Reference: patent US20220175761A1, “BI-LIGAND DRUG CONJUGATE AND USE THEREOF” (COHERENT BIOPHARMA (SUZHOU), LIMITED, priority 2019, published 2022)

How the values were obtained:
[1] = test system: KB, T-47D, NCI-H460, CALU-3, HuH-7, and LNCaP tumor cell lines; test: Inhibition of tumor cell expansion, CCK8 (CB-20BK); assay type: cell-based, human
Procedure: Cell lines: KB human oral epidermoid carcinoma cells, T-47D human breast cancer cells, NCI-H460 human lung cancer cells, CALU-3 human lung adenocarcinoma cells, HuH-7 human liver cancer cells and LNCaP human prostate cancer cells
The cells were prepared in advance, digested with trypsin, collected and counted; with a complete cell culture medium, KB cells were diluted to 2.5×10^4 cells/ml, T-47D cells were diluted to 1.3×10^4 cells/ml, NCI-H460 cells were diluted to 3.5×10^4 cells/ml, CALU-3 cells were diluted to 4.0×10^4 cells/ml, HuH-7 cells were diluted to 3.0×10^4 cells/ml, and LNCaP cells were diluted to 8.0×10^4 cells/ml; 100 μl of the diluted cell solution was added to each well of 96-well plates; and negative control and blank control wells were set on each plate. The 96-well plates added with the cells were placed in an incubator at 37° C., 5% CO2 for culturing overnight.
The samples were diluted with a culture medium to desired concentrations (see Table 8). […]
To each well, 15 μl (10% of the liquid volume in a well) of a color developing solution from CCK-8 was added; the plates were incubated at 37° C. for an appropriate time (try to keep the OD value in the range of 1.0-2.0); the covers of the 96-well plates were removed, and the plates were read at 450 nm on a microplate reader (Molecular Devices Spectra MAX Plus). […]

[2] = test system: LU1380; test: Tumor growth inhibition in HuPrime xenograft lung cancer PDX model; assay type: in vivo, BALB/c-nude mice; settings: 3 mg/kg, tail vein
Procedure: (§1) Experimental scheme: The tumor tissue mass were prepared and subcutaneously inoculated into the anterior right flank of BALB/c-nude mice. When the tumor volume expanded to 80-160 mm^3, a randomized grouping was performed, and a model control group and administration groups were set. The mice were administrated from the first day of grouping, wherein the administration dose was adjusted according to the latest weight measurement. The mice were administrated via tail vein injection at an administration volume of 10 μl/g and an administration dosage of 3 mg/kg. After grouping and administration, the effects of tumor growth and treatment on normal behaviors of animals, specifically including the activity of experimental animals, food intake and drinking status, weight gain or loss status, and other abnormal conditions in eyes, hair, etc., were monitored. After grouping and administration, the weight of mice was measured twice a week to calculate the rate of weight change; at the same time, the long diameter and short diameter of the tumor were measured with a vernier caliper, and the tumor volume, relative tumor proliferation rate, tumor volume inhibition rate and other indicators were calculated. The formula of tumor volume is TV=0.5 a×b^2, wherein a is the long diameter of a tumor and b is the short diameter of a tumor.

[3] = test system: LU1206; test: as above; assay type: in vivo, BALB/c-nude mice; settings: 3 mg/kg, tail vein
Procedure: as §1

[4] = test system: LU0367; test: as above; assay type: in vivo, BALB/c-nude mice; settings: 3 mg/kg, tail vein
Procedure: as §1

CC[C@H](C)[C@@H]([C@@H](CC(=O)N1CCC[C@H]1[C@H](OC)[C@@H](C)C(=O)N[C@H](C)[C@@H](O)c1ccccc1)OC)N(C)C(=O)[C@@H](NC(=O)[C@H](C(C)C)N(C)C(=O)OCc1ccc(NC(=O)C(CCCNC(N)=O)NC(=O)[C@@H](NC(=O)CCCCCN2C(=O)CC(SC[C@H](NC(=O)[C@H](CCCCN)NC(=O)[C@H](CC(=O)O)NC(=O)[C@H](CC(=O)O)NC(=O)Cc3ccc(CNC(=O)NCCCC[C@H](NC(=O)N[C@@H](CCC(=O)O)C(=O)O)C(=O)O)cc3)C(=O)N[C@@H](CCCCNC(=O)CC[C@H](NC(=O)c3ccc(NCc4cnc5[nH]c(N)nc(=O)c5n4)cc3)C(=O)O)C(N)=O)C2=O)C(C)C)cc1)C(C)C (some centres unmarked) [CB-20BK]
inhibitory effect on growth and expansion of tumor cell lines ([1]; 72 hours, CCK-8): has an inhibitory effect
IC50 compared between cell lines ([1]; T-47D, KB, LNCaP, HuH-7 and CALU-3 versus NCI-H460): significantly lower
TGI [2]: 30.02%
TGI [3]: 90.89%
TGI [4]: 71.34%
